One data set has as its system HCMV TB40/E-ΔUL16-eGFP. As to the kind of experiment: Infection assay: HFF infected with TB40E-ΔUL16-EGFP and treated with HD5-derived peptides (screening, GFP+/DAPI+). In kind it is cell-based, Human Cytomegalovirus. The following applies: 75 μM peptide, MOI 0,5, 40 h, compared to other tested peptides. On the procedure: For the infection assays, the cells were sown in 96-well plates. Human foreskin fibroblasts (HFF) and ARPE-19 cells (Adult Retinal Pigment Epithelial cell line-19) were seeded with 10 000 cells in 200 μl medium per well, macrophages with 20 000 cells in 200 μl medium per well and THP with 50 000 cells in 200 μl per well. The cells were incubated overnight at 37° C. and 5% CO2 and treated the following day. A medium change to P/S-free medium was performed to avoid interaction between the antibiotics used and the peptide sequences. Afterwards the corresponding peptides were added in different concentrations and immediately afterwards the virus, the final volume was 100 μl per well. The virus of the strain TB40/E-ΔUL16-eGFP was used. TB40-ΔUL16-eGFP is a derivative of the strain TB40, in which the majority of the open reading frame UL16 has been replaced by the open reading frame of eGFP, essentially as described in detail for a homologous mutant of strain AD169 (Tischer et al., “Two-step red-mediated recombination for versatile high-efficiency markerless DNA manipulation in Escherichia coli”, Biotechniques, (2006), 40(2):191-7). […] The required volume of the virus stock was calculated using the titer according to the following formula: […]

Data set [1] concerns HFF, ARPE-19 and macrophages. As to the kind of experiment: Impedance measurement (xCELLigence) toxicity study. The format is cell-based, human. The settings on record: ARPE-19, macrophages, 72 h impedance. The text has this: The “xCELLigence” system (ACEA Biosciences Inc.) was used for a more detailed toxicity study. The principle is based on a measurement of the electrical resistance caused by adhesive cells on the bottom of a 96-well plate equipped with microelectrodes. Cell proliferation causes an increase in resistance due to the partial isolation of the electrodes, while events leading to altered cell morphology or cell detachment lead to reduced resistance (Diemert et al. “Impedance measurement for real time detection of neuronal cell death”, J Neurosci Methods, 203(1):69-77, 2012)). The experiments were performed with HFF, ARPE-19 and macrophages, the appropriate cell numbers were determined in a preliminary experiment without treatment with peptides.
On the first day 10 000 HFF or ARPE-19 or 20 000 macrophages per well were sown. […] Then a blank value was measured and the cells were added in corresponding numbers in 150 μl medium each, the final volume was 200 μl per well. The plate was placed in the “xCELLigence” and the impedance was measured at 37° C. and 5% CO2 over 24 h every 30 min. […] Afterwards, the resistance at the bottom of the 96-well plate was measured every 30 min for a further 72 h. The resistance of the tritone was measured with a positive control of 10% tritone. From the measured impedance values, the RTCA software calculated the so-called cell index according to the following formula: […]

Residues, ends and D or L forms follow the SMILES beside them.

For `C[C@H](N)C(=O)N[C@H](C(=O)N[C@@H](CS)C(=O)N[C@@H](Cc1ccc(O)cc1)C(=O)N[C@@H](CS)C(=O)N[C@@H](CCCNC(=N)N)C(=O)N[C@H](C(=O)NCC(=O)N[C@@H](CCCNC(=N)N)C(=O)O)[C@@H](C)O)[C@@H](C)O` [HD5 (1-9), ATCYCRTGR] (H-ATCYCRTGR-OH; N-terminus and C-terminus assumed), the “antiviral effect (infection rate GFP+/DAPI+)” value in the data set on HCMV TB40/E-ΔUL16-eGFP is “excellent antiviral effect”. Besides, the “concentration up to which no cytotoxicity is shown” value in data set [1] is reported as “up to 150 μM”.

The values are drawn from patent publication US20220213156A1, “Peptides for use in therapy or prophylaxis of Herpesviridae-infections” (priority 2019, published 2022).
